Experimental findings from patent publication US20240207268A1, “PYRAZOLYLPYRIMIDINES FOR TREATING MALIGNANT SOLID TUMOR” (BIOTHERYX, INC., priority 2021, published 2024) are described below.

Data set [1] is described as follows: GLP 28-day oral toxicology study of compound A22 in Sprague Dawley rats. To be noted: rat, in vivo, once daily oral gavage, di-HCl or di-p-toluenesulfonate salt, read-out: NOAEL (no-observed-adverse-effect-level) dose. Type of data set: in vivo. The procedure: (§1) The toxicology studies of compound A22 were performed in Sprague Dawley rats and Beagle dogs. In GLP, 28-day (once daily, 7 days per week) studies, compound A22 was administered as a di-HCl salt or di-p-toluenesulfonate salt by oral gavage. The results are summarized in Tables 1 and 2, where HNSTD is highest nonseverely toxic dose; NOAEL is no-observed-adverse-effect-level; and STDio is severely toxic dose in 10%.

A further data set concerns Sprague Dawley rats. The description is as above. Type of data set: in vivo. The conditions noted are these: once daily oral gavage, di-HCl or di-p-toluenesulfonate salt. How it is done:
as §1

For a further data set, the system named is Beagle dogs. Kind of data set: GLP 28-day oral toxicology study of compound A22 in Beagle dogs. In kind it is in vivo. The conditions noted are these: once daily oral gavage, di-HCl or di-p-toluenesulfonate salt. The procedure:
as §1

Assay in data set [2]: as above
In kind it is in vivo. To be noted: dog, in vivo, once daily oral gavage, di-HCl or di-p-toluenesulfonate salt, read-out: NOAEL (no-observed-adverse-effect-level) dose. The procedure: as §1

A short description of data set [3]: Steady state toxicokinetics of compound A22 in Beagle dogs (28-day study). The conditions noted are these: dog, in vivo, oral gavage. How it is done:
as §1

Data set [4] in a line: Steady state toxicokinetics of compound A22 in Sprague Dawley rats (28-day study). The conditions noted are these: rat, in vivo, oral gavage. How it is done: as §1
The next data set can be described thus: Solubility in water. In kind it is physicochemical. The conditions noted are these: in water at 25° C.
Setting [5] is: female dogs, 0.06 mg/kg/day (NOAEL).
Setting [6] is: female dogs, 0.2 mg/kg/day (HNSTD).
The mark [7] stands for this setting: male dogs, 0.06 mg/kg/day (NOAEL).
Where [8] appears, read: male dogs, 0.2 mg/kg/day (HNSTD).
Setting [9] is: female rats, 0.7 mg/kg/day (NOAEL).
[10] abbreviates: female rats, 2.5 mg/kg/day (STD10).
Where [11] appears, read: male rats, 0.7 mg/kg/day (NOAEL).
Where [12] appears, read: male rats, 2.5 mg/kg/day (STD10).

Turning to `Cn1ncc(-c2nc(N[C@H]3CC[C@H](N)CC3)ncc2Cl)c1CC1CC1` [A22, (1r,4r)-N^1-(5-chloro-4-(5-(cyclopropylmethyl)-1-methyl-1H-pyrazol-4-yl)pyrimidin-2-yl)cyclohexane-1,4-diamine], the results for the NOAEL at 28 day in data set [1] and in data set [2] were 0.7 mg/kg/day and 0.06 mg/kg/day, respectively. The “STD10 (severely toxic dose in 10%) dose” value with Sprague Dawley rats was determined as 2.5 mg/kg/day. Besides, in the data set with Beagle dogs, the “HNSTD (highest nonseverely toxic dose)” value was found to be 0.2 mg/kg/day. Further, the AUC(0-t) in data set [3] (setting [5]) was 129 ng·h/mL; in data set [3] (setting [6]), 471 ng·h/mL; in data set [3] (setting [7]) it was 102 ng·h/mL; in data set [3] (setting [8]) it was 567 ng·h/mL; in data set [4] (setting [9]), 160 ng·h/mL; in data set [4] (setting [10]), 2390 ng·h/mL. Moreover, the AUC(0-t) in data set [4] (setting [11]) is 152 ng·h/mL; in data set [4] (setting [12]) it was 2520 ng·h/mL. In addition, the Cmax in data set [3] (setting [5]) stood at 7.55 ng/mL; in data set [3] (setting [6]), 30.6 ng/mL; in data set [3] (setting [7]), 6.38 ng/mL; in data set [3] (setting [8]) it was 34.4 ng/mL; in data set [4] (setting [9]) it was 13.6 ng/mL; in data set [4] (setting [10]), 156 ng/mL. For the same compound, the results for the Cmax in data set [4] (setting [11]) and in data set [4] (setting [12]) were 13.7 ng/mL and 184 ng/mL, respectively.
Turning to `Cc1ccc(S(=O)(=O)O)cc1.Cc1ccc(S(=O)(=O)O)cc1.Cn1ncc(-c2nc(N[C@H]3CC[C@H](N)CC3)ncc2Cl)c1CC1CC1` [crystalline di-p-toluenesulfonate salt, di-p-toluensulfonate of (1r,4r)-N^1-(5-chloro-4-(5-(cyclopropylmethyl)-1-methyl-1H-pyrazol-4-yl)pyrimidin-2-yl)cyclohexane-1,4-diamine], in “Solubility in water”, the solubility entry is reported as “about 2 mg/mL”.
